In patent publication US20260206761A1, “HETEROARYL-TRIAZOLE COMPOUNDS AS PESTICIDES” (Bayer Aktiengesellschaft, priority 2019, published 2026):

Tests used:
Format in all cases: in vivo
[1] = test system: adult engorged female ticks (Rhipicephalus microplus); assay: Rhipicephalus (Boophilus) microplus injection test; conditions: 168 h, egg deposition after 7 days, read-out: activity (efficacy: infertile eggs); for pest or weed control at 4 pg: application rate 4 pg/animal; for pest or weed control at 0.02 mg: application rate 20 μg/animal
Method in brief: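 Abdominal injection, 1 μL compound/DMSO, n=5 engorged adult females; climate-chamber incubation. Readout d7: fertile egg laying; doubtful eggs held to hatch (~42 d). % efficacy = infertile eggs (100% all infertile).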

[2] = test system: adult unfed cat fleas (Ctenocephalides felis); assay: Ctenocephalides felis oral test; conditions: 48 h, read-out: activity (mortality)
Method in brief: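 About 20 adult unfed fleas fed through parafilm on cattle blood containing compound (DMSO stock diluted in blood), blood held at 37 °C and fleas at room temperature. Mortality (%) scored after 2 days.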

[3] = test system: larvae of the banded cucumber beetle (Diabrotica balteata); assay: Diabrotica balteata spray test; conditions: 168 h, after 7 days, read-out: activity (efficacy: seedlings grown); for pest or weed control at 100 g/ha: application rate 100 g/ha (=32 pg/well); for pest or weed control at 500 g/ha: application rate 500 g/ha (=160 pg/well)
Method in brief: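 Read-out is % efficacy at day 7, 0% meaning no seedling growth and 100% growth equal to uninfested untreated controls. Test solutions (acetone/DMF concentrate diluted with water carrying 1000 ppm emulsifier) were sprayed onto 1-day-germinated wheat seeds, 5 per well, before infestation with 10-20 larvae.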

[4] = test system: fall armyworm larvae (Spodoptera frugiperda); assay: Spodoptera frugiperda spray test; conditions: 168 h, read-out: activity (mortality)
Method in brief: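 Larvae of fall armyworm placed on dried maize leaf sections previously sprayed with emulsified compound (acetone/DMF solvent, water with 1000 ppm emulsifier). Percent of caterpillars killed recorded on day 7, 0–100% scale.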

[5] = test system: Aedes aegypti strain MONHEIM; assay: Aedes aegypti test (AEDSAE surface treatment & contact assay); conditions: 24 hours after contact, read-out: efficacy (mortality); for mortality at 4 mg/m2: surface concentration 4 mg/m^2, exposure 30 minutes; for mortality at 20 mg/m2: surface concentration 20 mg/m^2, exposure 30 minutes
Method in brief: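 Percent mortality was read 24 h after adult MONHEIM mosquitoes were held for 30 min on a tile treated with compound. Compound applied from acetone solution (2 mg/ml) containing 2000 ppm rapeseed oil methyl ester, after evaporation.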

[6] = test system: Musca domestica strain WHO-N; assay: Musca domestica test (MUSCDO surface treatment & contact assay); conditions: 24 hours after contact, read-out: efficacy (mortality); for mortality at 4 mg/m2: surface concentration 4 mg/m^2, exposure 30 minutes; for mortality at 20 mg/m2: surface concentration 20 mg/m^2, exposure 30 minutes
Method in brief: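 Compound dissolved at 2 mg/ml in acetone with 2000 ppm rapeseed oil methyl ester and pipetted onto a glazed tile. After the acetone evaporated, adult WHO-N flies were exposed to the dried surface for 30 min, with % mortality scored 24 h after contact.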

[7] = test system: adult cat fleas (Ctenocephalides felis); assay: Ctenocephalides felis in-vitro contact test, adult cat flea; conditions: application rate 5 μg/cm^2 (=500 g/ha), after 48 hours, read-out: activity (efficacy: fleas dead or moribund)
Method in brief: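 Efficacy, as % of fleas dead or moribund, was read 48 h after 5-10 adult cat fleas were confined in glass tubes whose walls carried dried compound film (900 ppm, […]). Fleas failing to escape upward from a 45-50° C plate within 5 min counted as dead or moribund.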

| SMILES | pest or weed control at 4 pg [1] [%] | pest or weed control at 0.02 mg [1] [%] | mortality at 100 ppm [2] [%] | pest or weed control at 100 g/ha [3] [%] | pest or weed control at 500 g/ha [3] [%] | mortality at 100 g/ha [4] [%] | mortality at 500 g/ha [4] [%] | mortality at 4 mg/m2 [5] [%] | mortality at 20 mg/m2 [5] [%] | mortality at 4 mg/m2 [6] [%] | mortality at 20 mg/m2 [6] [%] | pest or weed control at 5 µg/cm2 [7] [%] |
| --- | --- | --- | --- | --- | --- | --- | --- | --- | --- | --- | --- | --- |
| C[C@H](NC(=O)c1cc(C(F)(F)F)cc(S(=O)(=O)C2CC2)c1)c1ncnn1-c1ccc(C#N)cn1 [II-32] | 100 | 100 | 100 | 100 | 100 | 100 | 100 | 80 to 100 | 80 to 100 | 80 to 100 | 80 to 100 | – |
| C[C@H](NC(=O)c1cc(Cl)cc(S(C)(=O)=O)c1)c1nc(C2CC2)nn1-c1ccc(C#N)cn1 [I-4] | 100 | 100 | 100 | 100 | 100 | 100 | 100 | 80 to 100 | 80 to 100 | – | – | 90 |
| CSc1cc(C#N)cc(C(=O)N[C@@H](C)c2ncnn2-c2ccc(C#N)cn2)c1 [II-3] | 100 | 100 | 100 | 100 | 100 | – | 100 | 80 to 100 | 80 to 100 | – | – | 100 |
| CC(NC(=O)c1cc(C(F)(F)F)cc(S(C)(=O)=O)c1)c1nc(Cl)nn1-c1ncccn1 (stereo not shown) [I-30] | 100 | 100 | 100 | 100 | – | – | – | 80 to 100 | 80 to 100 | – | 80 to 100 | 100 |
| C[C@H](NC(=O)c1cc(Cl)cc(S(=O)(=O)C(F)F)c1)c1ncnn1-c1ccc(C#N)cn1 [II-17] | 100 | 100 | 100 | 100 | 100 | 83 | 100 | 80 to 100 | 80 to 100 | – | – | 100 |
| C[C@H](NC(=O)c1cc(Cl)cc(S(=O)(=O)C(F)(F)F)c1)c1ncnn1-c1ncc(OC(F)F)cn1 [II-43] | 100 | 100 | 100 | 100 | – | 100 | – | 80 to 100 | 80 to 100 | – | – | 100 |
| C[C@H](NC(=O)c1cc(C2CC2)cc(C(F)(F)F)c1)c1ncnn1-c1ccc(C#N)cn1 [II-26] | 100 | 100 | – | 100 | 100 | 100 | 100 | 80 to 100 | 80 to 100 | 80 to 100 | 80 to 100 | 90 |
| C[C@H](NC(=O)c1cc(C#N)cc(S(C)(=O)=O)c1)c1ncnn1-c1ccc(Cl)cn1 [II-29] | 100 | 100 | 100 | – | 100 | 83 | 100 | 80 to 100 | 80 to 100 | – | – | 100 |
| C[C@H](NC(=O)c1cc(C(F)(F)F)cc(S(C)(=O)=O)c1)c1ncnn1-c1ncccn1 [II-13] | 100 | 100 | – | 100 | 100 | – | 100 | 80 to 100 | 80 to 100 | 80 to 100 | – | 100 |
| C[C@H](NC(=O)c1cc(C#N)cc(C2CC2)c1)c1ncnn1-c1ncccn1 [II-54] | – | – | 100 | 100 | – | 83 | – | 80 to 100 | 80 to 100 | – | – | 100 |
